The test concerns the target human IDO1 (Homo sapiens, UniProt P14902). Briefly: Assessment of human IDO-1 inhibitory activity in HEK cells (human IDO1/HEK293 cells, Ehrlich reagent, absorbance at 490 nm). To be noted: In Vitro Potency in the HEK Human IDO-1 Cellular Assay. On the set-up: expressed in transfected cells. Format: cell-based. In outline:
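Stable human IDO1-expressing HEK293 cells treated with compound for 20 h at 37 °C in phenol red-free RPMI/10% FBS. Stopped with 0.2% TCA (final) and heated 30 min at 50 °C; supernatant mixed with Ehrlich reagent, absorbance read at 490 nm. IC50 normalised to DMSO (0%) and 500 nM reference standard (100% inhibition).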

Molecules are shown by their SMILES.

Chain of human IDO1 (P14902 whole entry): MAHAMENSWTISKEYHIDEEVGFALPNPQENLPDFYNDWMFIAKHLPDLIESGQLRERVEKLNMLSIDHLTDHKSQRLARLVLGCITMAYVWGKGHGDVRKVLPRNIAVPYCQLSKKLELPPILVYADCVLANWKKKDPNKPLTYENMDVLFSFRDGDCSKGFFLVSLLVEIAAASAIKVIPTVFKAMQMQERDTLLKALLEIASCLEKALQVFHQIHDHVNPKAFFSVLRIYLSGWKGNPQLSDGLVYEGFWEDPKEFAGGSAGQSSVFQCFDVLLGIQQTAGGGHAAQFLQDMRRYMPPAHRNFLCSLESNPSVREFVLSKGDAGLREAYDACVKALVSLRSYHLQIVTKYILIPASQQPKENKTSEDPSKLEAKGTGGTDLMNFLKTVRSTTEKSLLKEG

On to `CCC(CC(=O)O)c1cc(NC(=O)Nc2cc(C)no2)c(N(CC(C)C)C2CCCCC2)cc1F` (single isomer, unassigned) [Example 1115, 3-(4-(Cyclohexyl(isobutyl)amino)-2-fluoro-5-(3-(3-methylisoxazol-5-yl)ureido)phenyl)pentanoic acid], for which the IC50 was less than 5 nM. The figure for `CCOc1ccc(NC(=O)Nc2cc(C(CC)CC(=O)O)c(F)cc2N(CC(C)C)C2CCCCC2)c(F)c1` (single isomer, unassigned) [Example 1118, 3-(4-(Cyclohexyl(isobutyl)amino)-5-(3-(4-ethoxy-2-fluorophenyl)ureido)-2-fluorophenyl)pentanoic acid] is less than 5 nM; for `CCC(CC(=O)O)c1cc(NC(=O)Nc2ccc(C)cc2F)c(N(CC(C)C)C2CCCCC2)cc1F` (single isomer, unassigned) [Example 1121, 3-(4-(Cyclohexyl(isobutyl)amino)-2-fluoro-5-(3-(2-fluoro-4-methylphenyl)ureido)phenyl)pentanoic acid] it is less than 5 nM.

Take `CCC(CC(=O)O)c1cc(NC(=O)Nc2cncnc2)c(N(CC(C)C)C2CCCCC2)cc1F` (single isomer, unassigned) [Example 1124, 3-(4-(Cyclohexyl(isobutyl)amino)-2-fluoro-5-(3-(pyrimidin-5-yl)ureido)phenyl)pentanoic acid]: the IC50 is less than 5 nM. For `CCC(CC(=O)O)c1cc(NC(=O)Nc2cnc(C)nc2)c(N(CC(C)C)C2CCCCC2)cc1F` (single isomer, unassigned) [Example 1127, 3-(4-(Cyclohexyl(isobutyl)amino)-2-fluoro-5-(3-(2-methylpyrimidin-5-yl)ureido)phenyl)pentanoic acid] the value was less than 5 nM. For `CCC(CC(=O)O)c1cc(NC(=O)Nc2ccc(C)cc2)c(N(CC(C)C)CC(C)C)cc1F` (single isomer, unassigned) [Example 1130, 3-(4-(Diisobutylamino)-2-fluoro-5-(3-(p-tolyl)ureido)phenyl)pentanoic acid] the value was less than 5 nM. For `CCOc1ccc(NC(=O)Nc2cc(C(CC)CC(=O)O)c(F)cc2N(CC(C)C)CC(C)C)cc1` (single isomer, unassigned) [Example 1133, 3-(4-(Diisobutylamino)-5-(3-(4-ethoxyphenyl)ureido)-2-fluorophenyl)pentanoic acid] the value was less than 5 nM. Take `CCC(CC(=O)O)c1cc(NC(=O)Nc2ccc3c(c2)OCO3)c(N(CC(C)C)CC(C)C)cc1F` (single isomer, unassigned) [Example 1136, 3-(5-(3-(Benzo[d][1,3]dioxol-5-yl)ureido)-4-(diisobutylamino)-2-fluorophenyl) pentanoic acid]: the IC50 is less than 5 nM. For `CCOc1ccc(NC(=O)Nc2cc(C(CC)CC(=O)O)c(F)cc2N(CC(C)C)CC(C)C)c(F)c1` (single isomer, unassigned) [Example 1139, 3-(4-(Diisobutylamino)-5-(3-(4-ethoxy-2-fluorophenyl)ureido)-2-fluorophenyl) pentanoic acid] the value was less than 5 nM; for `CCC(CC(=O)O)c1cc(NC(=O)Nc2cnc(OC)nc2)c(N(CC(C)C)CC(C)C)cc1F` (single isomer, unassigned) [Example 1142, 3-(4-(Diisobutylamino)-2-fluoro-5-(3-(2-methoxypyrimidin-5-yl)ureido)phenyl)pentanoic acid], less than 5 nM. Consider `CCC(CC(=O)O)c1ccc(N2CCC[C@@H]2COC)c(NC(=O)Cc2ccc(C)cc2)c1` (single isomer, unassigned) [Example 1145], for which the IC50 was greater than 50 nM. The compound `COCC(CC(=O)O)c1cc(F)c(N(CC(C)C)C2CCCCC2)c(NC(=O)Nc2ccc(C)cc2)c1` (single isomer, unassigned) [Example 1161, 3-(4-(cyclohexyl(isobutyl)amino)-3-fluoro-5-(3-(p-tolyl)ureido)phenyl)-4-methoxybutanoic acid] yielded an IC50 of less than 5 nM.

Values taken from patent publication US10399932B2, “Inhibitors of indoleamine-2,3-dioxygenase for the treatment of cancer” (BRISTOL-MYERS SQUIBB COMPANY, priority 2015, dated 2019).
